{"source": "patent US20250353835A1", "about": "“N-TETRAZOLYL ARYL UREA-BASED DERIVATIVES, PREPARATION METHOD THEREFOR, AND USE THEREOF” (Hangzhou Yirui Pharmaceutical Technology Co., Ltd, priority 2022, published 2025)", "key": {"[1]": {"target": "T1, CYP2C8 (Homo sapiens, UniProt P10632)", "T1 construct": "The substrate method was used to determine the activity of human liver microsomal CYP450 enzyme; from tissue; host or cells: human liver microsomes", "T1 sequence (P10632 1-490)": "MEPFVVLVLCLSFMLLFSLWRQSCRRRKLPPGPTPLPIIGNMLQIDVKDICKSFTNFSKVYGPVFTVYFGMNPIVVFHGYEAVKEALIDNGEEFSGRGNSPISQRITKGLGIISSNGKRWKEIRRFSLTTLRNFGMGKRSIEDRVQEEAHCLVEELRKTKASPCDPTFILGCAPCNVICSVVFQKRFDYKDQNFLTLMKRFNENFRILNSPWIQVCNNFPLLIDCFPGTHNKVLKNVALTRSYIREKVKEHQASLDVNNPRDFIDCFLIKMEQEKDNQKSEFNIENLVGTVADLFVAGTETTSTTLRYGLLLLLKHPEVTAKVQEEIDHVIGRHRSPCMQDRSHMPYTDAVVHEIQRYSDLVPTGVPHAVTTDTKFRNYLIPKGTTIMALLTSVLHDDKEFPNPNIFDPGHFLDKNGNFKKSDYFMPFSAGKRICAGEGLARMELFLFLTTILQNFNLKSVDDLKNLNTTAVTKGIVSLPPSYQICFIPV", "assay": "CYP450 inhibition in human liver microsomes (substrate method, LC-MS/MS)", "type": "in vitro ADME", "details": "read-out: CYP inhibition IC50 [μM], 2C8", "method": "(§1) In addition, the LC-MS/MS method was used to determine the substrate metabolites of 5 major subtypes of human liver microsomal CYP450 enzymes (including CYP1A2, CYP2D6, CYP2C8, CYP2C9, and CYP3A4). The substrate method was used to determine the activity of human liver microsomal CYP450 enzyme. The established incubation system was verified using known inhibitors to investigate the inhibitory effect of the compound on CYP450 enzyme. For the enzyme induction test, a primary cultured human hepatocyte incubation system was used. 3-methylcholanthrene, phenobarbital, and rifampicin were used as positive control inducers of CYP1A2, CYP2B6, and CYP3A4, and phenacetin, bupropion, and testosterone were used as the substrate for CYP1A2, CYP2B6, and CYP3A4. The CYP450 enzyme activity was calculated by measuring the generation rate of 3 specific substrate metabolites in the incubation solution. Meanwhile, the total RNA was extracted from the human hepatocytes after incubation, and the real-time fluorescence quantitative PCR method was used to determine the mRNA expression level of CYP1A2, […], and CYP3A4. The enzyme activity and mRNA transcription level were used as endpoints to investigate the inductive effect of the compound on human liver P450 isoenzymes CYP1A2, […], and CYP3A4. The liver microsomal metabolism parameters in vitro are shown in Table 2B3 taking Compound 8 as an example."}, "[2]": {"target": "T2, CYP2D6 (Homo sapiens, UniProt P10635)", "T2 construct": "The substrate method was used to determine the activity of human liver microsomal CYP450 enzyme; from tissue; host or cells: human liver microsomes", "T2 sequence (P10635 whole entry)": "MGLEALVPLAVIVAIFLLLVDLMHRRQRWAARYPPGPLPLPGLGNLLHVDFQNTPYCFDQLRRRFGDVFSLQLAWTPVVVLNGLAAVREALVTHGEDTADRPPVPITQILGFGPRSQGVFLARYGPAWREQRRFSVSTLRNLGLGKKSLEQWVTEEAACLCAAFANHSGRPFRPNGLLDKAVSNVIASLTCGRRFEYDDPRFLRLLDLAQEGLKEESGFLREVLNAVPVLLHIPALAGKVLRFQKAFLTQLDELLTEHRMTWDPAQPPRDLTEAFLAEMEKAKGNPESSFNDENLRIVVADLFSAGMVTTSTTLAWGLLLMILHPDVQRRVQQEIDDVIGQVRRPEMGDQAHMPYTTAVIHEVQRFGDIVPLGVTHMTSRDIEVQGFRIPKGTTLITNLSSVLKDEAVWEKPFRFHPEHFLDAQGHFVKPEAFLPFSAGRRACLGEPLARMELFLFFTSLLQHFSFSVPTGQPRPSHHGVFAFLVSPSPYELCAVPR", "assay": "CYP450 inhibition in human liver microsomes (substrate method, LC-MS/MS)", "type": "in vitro ADME", "details": "read-out: CYP inhibition IC50 [μM], 2D6", "method": "as §1"}, "[3]": {"tested_on": "mouse model of ragweed pollen-induced allergic conjunctivitis", "assay": "Mouse model of ragweed pollen-induced allergic conjunctivitis", "type": "in vivo, Balb/c mice", "details": "for Clinical symptom score: twice a day for 14 days, Day 14 within 30 minutes after final challenge", "method": "SPF-grade Balb/c mice (half male and half female, 6-8 weeks old) were used as experimental animals. On Day 0 and Day 6, ragweed pollen footpad injection was injected subcutaneously into the footpads of mice for sensitization (65 μl per mouse). On Days 10-14, in the model group, eye drop of ragweed pollen was applied to both eyes of the mice (10 μl per mouse) once a day. The eye drops were applied for 5 consecutive days to trigger local allergic conjunctivitis (Wu B, et al., Frontiers in Immunology, 2021, 12:4754). […] On Day 14, within 30 minutes after the final challenge, the ocular clinical symptoms of the mice were observed under a microscope and scored according to the scoring criteria reported by Magone et al. (MerayoLloves J, et al., J Allergy Clin Immunol (1996) 97(5):1129-40; Magone M T, et al., Clin Immunol Immunopathol (1998) 87(1):75-84), the allergic response of the eyes were observed, including 4 indexes: conjunctival edema, conjunctival congestion, eyelid congestion and edema, and tearing. The scores were recorded as 0-3 points according to the severity (including none, mild, moderate and severe). The left eye of the mouse was taken with the eyelid (keeping the conjunctiva intact), fixed with polyformaldehyde, sectioned in paraffin, Hematoxylin-Eosin stained (HE stained), and toluidine blue stained (for detection of mast cells). Photographs were taken to analyze the inflammatory cell infiltration of the conjunctival tissue, and observe whether the mast cells in the conjunctiva aggregated and whether a phenomenon of degranulation occurred. The expression of allergic indicators IL-4 and IgE in the conjunctival tissue was detected by immunohistochemistry.\nThe mouse eye, including the eyelids (with intact conjunctiva), was sectioned after deparaffinization, and subjected to antigen retrieval and serum blocking.\nDiluted IL-4 or IgE antibodies were added and incubated overnight. After incubation with secondary antibodies, DAB staining was performed, followed by counterstaining with hematoxylin. The slides were then mounted and observed under an […], with photographs taken. Semi-quantitative analysis was conducted using Image-J software. Based on the cumulative optical density and regional area values of each image, the average optical density was calculated to detect the positive expression of IL-4 or IgE."}, "[4]": {"details": "immunohistochemistry, 2% eye drop"}}}
{"smiles": "CCOc1ccc(-c2c(F)cc(NC(=O)N3CCC(C(C)(C)C)CC3)cc2-c2nn[nH]n2)cn1", "note": "[Compound 8, 4-(tert-butyl)-N-(4-(6-ethoxypyrid-3-yl)-3-fluoro-5-(2H-tetrazol-5-yl)phenyl)piperidine-1-carboxamide]", "values": [{"measurement": "IC50", "setting": "[1]", "value": 50, "unit": "µM"}, {"measurement": "IC50", "setting": "[2]", "value": 50, "unit": "µM"}, {"measurement": "inflammatory cell infiltration of conjunctival tissue (HE staining; in words)", "setting": "[3]; 0.5% eye drop", "value": "inflammatory cell infiltration was still visible"}, {"measurement": "mast cell degranulation (toluidine blue staining; in words)", "setting": "[3]; 0.5% eye drop", "value": "a few samples showed manifest mast cell degranulation"}, {"measurement": "Clinical symptom score", "setting": "[3]; 0.5% eye drop", "value": "3.67 ± 0.36"}, {"measurement": "inflammatory cell infiltration of conjunctival tissue (HE staining; in words)", "setting": "[3]; 2% eye drop", "value": "an improvement in inflammatory cell infiltration"}, {"measurement": "mast cell degranulation (toluidine blue staining; in words)", "setting": "[3]; 2% eye drop", "value": "no mast cell degranulation was observed"}, {"measurement": "Clinical symptom score", "setting": "[3]; 2% eye drop", "value": "1.75 ± 0.22^♦"}, {"measurement": "expression of IgE in ocular tissue (average optical density)", "setting": "[3]; immunohistochemistry, 0.5% eye drop", "value": "0.72±0.12"}, {"measurement": "expression of IL-4 in ocular tissue (average optical density)", "setting": "[3]; [4]", "value": "0.24±0.06"}, {"measurement": "expression of IgE in ocular tissue (average optical density)", "setting": "[3]; [4]", "value": "0.54±0.06"}]}
